# Literature values as cited in patent publication US11377445B2, “Derivatives of paliperidone and process for the preparation thereof” (Zenvision Pharma LLP, priority 2018, dated 2022).
SMILES,solubility in 0.1N HCl (0.1N HCl),solubility in 0.1N NaOH (0.1N NaOH),"solubility in N, N-dimethylformamide (N, N-dimethylformamide)",solubility in hexane (hexane),solubility in methylene chloride (methylene chloride),solubility in water (water),solubility in ethanol (ethanol),solubility in ethyl acetate (ethyl acetate),solubility in methanol (methanol),solubility in polyethylene glycol 400 (polyethylene glycol 400),solubility in propylene glycol (propylene glycol)
"Cc1nc2n(c(=O)c1CCN1CCC(c3noc4cc(F)ccc34)CC1)CCCC2O (racemic) [Paliperidone, (±)-3-[2-[4-(6-fluoro-1,2-benzisoxazol-3-yl)-1-piperidinyl]ethyl]-6,7,8,9-tetrahydro-9-hydroxy-2-methyl-4Hpyrido[1,2-a]pyrimidin-4-one]",sparingly soluble,practically insoluble,slightly soluble,practically insoluble,sparingly soluble,practically insoluble,,,,,
CCCCCCCCCCCCCCCC(=O)OC1CCCn2c1nc(C)c(CCN1CCC(c3noc4cc(F)ccc34)CC1)c2=O (centres unmarked) [Paliperidone palmitate],,,,,,,very slightly soluble,slightly soluble,very slightly soluble,practically insoluble,practically insoluble
